Results as given in patent US20120108669A1, “METHOD OF TREATING SLEEP DISORDERS USING EPLIVANSERIN” (SANOFI-AVENTIS, priority 2008, published 2012).

How the values were obtained:
healthy male subjects = assay: Example 2: single-dose cross-over study of sleep (EEG) and daytime functioning; format: in vivo, human
Description: The effects of eplivanserin or pharmaceutically acceptable salts or esters thereof on sleep and daytime functioning in healthy subjects were examined.
Double-blind, randomized, placebo (PBO)-controlled, 4-period, cross-over study with a 1-2-week washout between each period. Single oral doses of eplivanserin or pharmaceutically acceptable salts or esters thereof 1, 10 and 40 mg and PBO were given to healthy male subjects in either the evening (pm) or the morning (am; n=16). Sleep was assessed objectively using an EEG and subjectively by Leeds Sleep Evaluation Questionnaire. Next-day psychomotor function, memory and arousal were measured objectively via Critical Flicker Fusion (CFF), Choice Reaction Time, Compensatory Tracking and Sternberg memory-scanning tasks. Subjective assessment of drug activity was performed using Line Analogue Rating Scales.

[1] = system: patients exposed to eplivanserin; assay: Example 3: diverticulitis in pooled phase 2 and 3 trials; format: in vivo, human; conditions: for Incidence of Diverticulitis by sub-group: all eplivanserin doses
Source text: Hereafter are the observations made in pooled phase 2 and 3 trials with eplivanserin or pharmaceutically acceptable salts or esters thereof.
The majority of patients were non-elderly, females, and Caucasian with a median age between 47 and 51 years across treatment groups.

[2] = cited from earlier work
[3] = system: patients with chronic (primary) insomnia characterized by sleep maintenance difficulties; assay: Study EFC6220: 6-week polysomnography (PSG) study of sleep maintenance; format: in vivo, human; conditions: for PSG-NAW (number of awakenings) LS mean: p<0.0001
Source text: (§1) The Phase 3 program of development of eplivanserin in the treatment of patients with chronic (primary) insomnia characterized by sleep maintenance difficulties consisted of 3 randomized, double-blind (DB), placebo-controlled, efficacy and safety studies designed to assess the efficacy of eplivanserin on sleep maintenance either using polysomnography (PSG) recordings (6-week study EFC6220) or patient-reported outcome (12-week studies LTE6217 and LTE6262) collected daily on sleep questionnaires.
(§2) They were all double-blind (DB), randomized, placebo-controlled studies. In all studies, treatment period was preceded by a one week, placebo run-in period, designed to check selection criteria for insomnia based on patient reported sleep parameters collected on the daily sleep questionnaires (Studies LTE6217, and LTE6262) or based on PSG recordings during two screening nights in a sleep laboratory (Study EFC6220). Treatment period was followed by a placebo run-out period of 2 weeks designed to assess the effect of abrupt treatment discontinuation.
Study EFC6220 was designed to measure the pharmacodynamic activity of eplivanserin on sleep maintenance using PSG recordings in a sleep laboratory. Polysomnograms were recorded in standard conditions during 8 hours in bed.

[4] = system: patients with chronic (primary) insomnia characterized by sleep maintenance difficulties; assay: Study LTE6262: 12-week patient-reported sleep parameters (daily sleep questionnaire, IVRS); format: in vivo, human; conditions: 5 mg/day; for Quality of sleep Difference from Placebo LS Mean / Refreshing QoS Difference from Placebo LS Mean / pr-NAW Difference from Placebo LS Mean / Quality of sleep LS Mean / Refreshing QoS LS Mean / pr-NAW LS Mean: MMRM, ITT; for Quality of sleep LS Mean / Refreshing QoS LS Mean / pr-NAW LS Mean: mean change
Source text: as §1, §2
(§3) Studies LTE6217 and LTE6262 measured the efficacy of eplivanserin in real life conditions of use at home by collecting daily sleep parameters reported by patients through an Interactive Voice Response System (IVRS).
In these tables, values are given as an amount of time expressed in minutes and seconds (mm:ss).

[5] = system: patients with chronic (primary) insomnia characterized by sleep maintenance difficulties; assay: Study LTE6217: 12-week patient-reported sleep parameters (daily sleep questionnaire, IVRS); format: in vivo, human; conditions: 5 mg/day, MMRM, ITT; for Quality of sleep LS Mean (SEM) / Refreshing quality of sleep LS Mean (SEM) / pr-NAW LS Mean (SEM): mean change
Source text: as §1, §2
Studies LTE6217 and LTE6262 measured the efficacy of eplivanserin in real life conditions of use at home by collecting daily sleep parameters reported by patients through an Interactive Voice Response System (IVRS). […]

[6] = system: patients with chronic (primary) insomnia characterized by sleep maintenance difficulties; assay: Long-term studies LTE6217 and LTE6262 together: patient global impression, daytime function, residual effects; format: in vivo, human
Source text: as §1, §2, §3

[7] = single oral 1, 10 and 40 mg, morning or evening, P=0.0001 vs PBO
[8] = all Phase 2-3 studies, all doses
[9] = 5 mg/day, in comparison with placebo, after 6 and 12 weeks

CN(C)CCO/N=C(/C=C/c1ccc(O)cc1)c1ccccc1F [eplivanserin, (1Z, 2E)-1-(2-fluorophenyl)-3-(4-hydroxyphenyl)-prop-2-en-1-one-O-(2-dimethylaminoethyl)oxime]
Sleep efficiency (time asleep/time in bed) (healthy male subjects; P=0.0004 vs PBO): significantly improved
number of awakenings ≧120 s (healthy male subjects; P=0.03 vs PBO): significantly reduced
CFF threshold detection (healthy male subjects; at all doses): slight decrease
Times to sleep onset and total sleep time (healthy male subjects; in vivo): unaffected
treatment-emergent AEs (healthy male subjects; in vivo): No serious or severe treatment-emergent AEs were reported
SWS (healthy male subjects; regardless of dosage or dose timing (morning or evening)): doubled
next-day objective psychomotor function or memory tests, subjective ratings of 'hangover' or CNS sedation (healthy male subjects; regardless of dose, or am or pm administration): no detrimental effects
'deep'/slow-wave sleep (SWS) time (healthy male subjects; [7]): significantly increased
Stage 2 (light) sleep (healthy male subjects; [7]): decreased
final outcome of diverticulitis ([1]; 30 patients): Recovery was reported as final outcome in all patients, except 2
median time to onset of diverticulitis ([1]; 30 patients with diverticulitis): 58 days
Incidence of Diverticulitis by sub-group ([1]; Age groups (years): <65): 18/2636 (0.7%) (0.41 to 1.08)
Incidence of Diverticulitis by sub-group ([1]; Age groups (years): >=65): 12/394 (3.0%) (1.58 to 5.26)
Incidence of Diverticulitis by sub-group ([1]; BMI (kg/m2): 25-30): 17/1292 (1.3%) (0.77 to 2.10)
Incidence of Diverticulitis by sub-group ([1]; BMI (kg/m2): <25): 6/1121 (0.5%) (0.20 to 1.16)
Incidence of Diverticulitis by sub-group ([1]; BMI (kg/m2): >=30): 7/617 (1.1%) (0.46 to 2.32)
Incidence of Diverticulitis by sub-group ([1]; Concomitant drugs that inhibit prostaglandin synthesis: No): 15/2161 (0.7%) (0.39 to 1.14)
Incidence of Diverticulitis by sub-group ([1]; Concomitant drugs that inhibit prostaglandin synthesis: Yes): 15/869 (1.7%) (0.97 to 2.83)
Incidence of Diverticulitis by sub-group ([1]; Concomitant opioids: No): 27/2999 (0.9%) (0.59 to 1.31)
Incidence of Diverticulitis by sub-group ([1]; Concomitant opioids: Yes): 3/31 (9.7%) (2.04 to 25.75)
Incidence of Diverticulitis by sub-group ([1]; Creatinine clearance at baseline (ml/min): Mild: [50, 80[): 11/669 (1.6%) (0.82 to 2.92)
Incidence of Diverticulitis by sub-group ([1]; Creatinine clearance at baseline (ml/min): Moderate/Severe: <50): 1/44 (2.3%) (0.06 to 12.02)
Incidence of Diverticulitis by sub-group ([1]; Creatinine clearance at baseline (ml/min): Normal: >=80 or Missing): 18/2317 (0.8%) (0.46 to 1.23)
Incidence of Diverticulitis by sub-group ([1]; Gender: Female): 18/1651 (1.1%) (0.65 to 1.72)
Incidence of Diverticulitis by sub-group ([1]; Gender: Male): 12/1379 (0.9%) (0.45 to 1.52)
Incidence of Diverticulitis by sub-group ([1]; Medical history of constipation: No): 27/2943 (0.9%) (0.61 to 1.33)
Incidence of Diverticulitis by sub-group ([1]; Medical history of constipation: Yes): 3/87 (3.4%) (0.72 to 9.75)
Incidence of Diverticulitis by sub-group ([1]; Medical history of diverticular disease (includes diverticulitis): No): 18/2984 (0.6%) (0.36 to 0.95)
Incidence of Diverticulitis by sub-group ([1]; Medical history of diverticular disease (includes diverticulitis): Yes): 12/46 (26.1%) (14.27 to 41.13)
Incidence of Diverticulitis by sub-group ([1]; Medical history of diverticulitis: No): 23/3005 (0.8%) (0.49 to 1.15)
Incidence of Diverticulitis by sub-group ([1]; Medical history of diverticulitis: Yes): 7/25 (28.0%) (12.07 to 49.39)
Incidence of Diverticulitis by sub-group ([1]; Race: Asian/Oriental/Other): 0/138
Incidence of Diverticulitis by sub-group ([1]; Race: Black): 1/162 (0.6%) (0.02 to 3.39)
Incidence of Diverticulitis by sub-group ([1]; Race: Caucasian): 29/2730 (1.1%) (0.71 to 1.52)
exposure adjusted incidence rate of diverticulitis [1, 8]: 3.32 patients with an event per 100 patient-years
patients exposed who developed diverticulitis [1, 8]: 1%
patients exposed who developed diverticulitis ([1]; all Phase 2-3 studies, all doses, n/N): 30/3030
cumulative incidence rate of diverticulitis ([1]; at Week 24, all doses): about 1.6%
time of diverticulitis events after treatment initiation ([1]; clinical trials in patients with sleep disorders): two months on average
duration of diverticulitis episodes, mean ([1]; from the onset of the event): 23 days
duration of diverticulitis episodes, median ([1]; from the onset of the event): 17 days
total episodes of diverticulitis ([1]; in the 30 patients): 39
non-serious cases of diverticulitis ([1]; of 30 patients): 23
serious cases of diverticulitis ([1]; of 30 patients): 7
episodes of diverticulitis of mild intensity ([1]; per Investigator's judgment): Three out of 39
episodes of diverticulitis of moderate intensity ([1]; per Investigator's judgment): 26/39
episodes of diverticulitis of severe intensity ([1]; per Investigator's judgment): 10/39
half-life time ([2]; average value): 50 h
absorption (well absorbed) ([2]; in vivo): > 70%
sleep onset (PSG-LPS and pr-SOL) ([3]; 5 mg): did not affect sleep onset
percentage of time spent in sleep Stages 3&4 (slow wave sleep) ([3]; 5 mg/day compared with placebo): increased percentage of time
sleep Stage 1 ([3]; 5 mg/day compared with placebo): decrease of Stage 1
PSG-NAW (number of awakenings) LS mean ([3]; Week 3, 5 mg): −1.74
PSG-WASO (Wake after sleep onset) ([3]; Week 3 and Week 6, difference with placebo did not reach statistical significance at Week 6): decreasing PSG-WASO
PSG-NAW (number of awakenings) LS mean ([3]; Week 6, 5 mg): −1.82
number of brief awakenings (<1 min) ([3]; compared to placebo): decreased the number of brief awakenings
QoS (quality of sleep) ([3]; in vivo): improved
REM (rapid eye movement) sleep ([3]; in vivo): not affected
SWS/WASO+Stage 1 index ([3]; in vivo): increase of SWS/WASO+Stage 1 index
persistence of effect on sleep maintenance (pr-WASO) ([4]; observed from Day 1): persisted up to 1 year of treatment
Quality of sleep Difference from Placebo LS Mean ([4]; Week 6): −0.13
Refreshing QoS Difference from Placebo LS Mean ([4]; Week 6): −0.13
pr-NAW Difference from Placebo LS Mean ([4]; Week 6): −0.34
Quality of sleep LS Mean ([4]; Week 6): −0.58
Refreshing QoS LS Mean ([4]; Week 6): −0.55
pr-NAW LS Mean ([4]; Week 6): −0.99
Quality of sleep Difference from Placebo LS Mean ([4]; Week 12): −0.14
Refreshing QoS Difference from Placebo LS Mean ([4]; Week 12): −0.15
pr-NAW Difference from Placebo LS Mean ([4]; Week 12): −0.35
Quality of sleep LS Mean ([4]; Week 12): −0.63
Refreshing QoS LS Mean ([4]; Week 12): −0.60
pr-NAW LS Mean ([4]; Week 12): −1.08
Quality of sleep Difference from Placebo LS Mean ([5]; Week 6): −0.11
Refreshing quality of sleep Difference from Placebo LS Mean ([5]; Week 6): −0.11
pr-NAW Difference from Placebo LS Mean ([5]; Week 6): −0.39
Quality of sleep LS Mean (SEM) ([5]; Week 6): −0.65 (0.02)
Refreshing quality of sleep LS Mean (SEM) ([5]; Week 6): −0.62 (0.02)
pr-NAW LS Mean (SEM) ([5]; Week 6): −1.16 (0.04)
Quality of sleep Difference from Placebo LS Mean ([5]; Week 12): −0.10
Refreshing quality of sleep Difference from Placebo LS Mean ([5]; Week 12): −0.09
pr-NAW Difference from Placebo LS Mean ([5]; Week 12): −0.33
Quality of sleep LS Mean (SEM) ([5]; Week 12): −0.73 (0.03)
Refreshing quality of sleep LS Mean (SEM) ([5]; Week 12): −0.70 (0.03)
pr-NAW LS Mean (SEM) ([5]; Week 12): −1.27 (0.04)
PGI-item 1 [6, 9]: aid to sleep
PGI-item 3 [6, 9]: increasing duration of sleep
improvement of activities related to work and hobby activities ([6]; after 12 weeks, Study LTE6262 and meta-analysis of LTE6262 and LTE6217, compared with placebo): positive effect
"sleepiness in the morning" and "ability to concentrate" ([6]; reported by insomniac patients, compared with placebo): significantly favourable effect
potential for residual effects (next-day impairment) ([6]; safety analyses): devoid of next-day impairment
